The values that follow come from patent US10106556B2, “Heterocyclic compound” (TAKEDA PHARMACEUTICAL COMPANY LIMITED, priority 2015, dated 2018).

In the test the target is T1, His-hMAGL (recombinant polyhistidine tagged human MAGL protein) (Homo sapiens, UniProt Q99685).
T1 construct: made in house; host or cells: E. coli BL21(DE3)
T1 sequence (Q99685 1-303): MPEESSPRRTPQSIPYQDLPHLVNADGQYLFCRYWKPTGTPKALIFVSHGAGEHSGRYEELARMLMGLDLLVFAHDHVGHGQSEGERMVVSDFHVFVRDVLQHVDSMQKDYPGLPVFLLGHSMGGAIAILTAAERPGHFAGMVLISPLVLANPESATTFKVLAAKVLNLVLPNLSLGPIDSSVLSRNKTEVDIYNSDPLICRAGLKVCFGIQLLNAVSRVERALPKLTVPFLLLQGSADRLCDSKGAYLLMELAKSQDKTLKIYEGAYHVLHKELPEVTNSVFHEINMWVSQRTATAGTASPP
The test is described as follows: Measurement of MAGL inhibitory activity (arachidonic acid production from 2-arachidonylglycerol, RapidFire-mass spectrometry). It is filed as biochemical. Conditions: MAGL inhibitory rate at 10 μM test compound; 60 min preincubation with His-hMAGL, 2-arachidonylglycerol substrate, 10 min reaction at room temperature. In a few lines:
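Inhibition (%) was derived from arachidonic acid levels relative to enzyme-free and compound-free groups. Product was measured by online C4 solid-phase extraction and triple-quadrupole MS in negative SRM mode, corrected by arachidonic acid-d8 (3 μM in the acetonitrile added). Substrate was 2-arachidonylglycerol; enzyme was His-tagged recombinant human MAGL.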
For the molecule `O=C1COc2ccc(C(=O)N3CC(OCc4ccccc4)C3)cc2N1` [Example 326, 6-((3-(benzyloxy)azetidin-1-yl)carbonyl)-2H-1,4-benzoxazin-3(4H)-one], the inhibition (commonly the drop in the measured response relative to a control, in per cent) at 10 µM was determined as 98%.
Consider `O=C1COc2cc(F)c(C(=O)N3CC(OCc4ccccc4)C3)cc2N1` [Example 327, 6-((3-(benzyloxy)azetidin-1-yl)carbonyl)-7-fluoro-2H-1,4-benzoxazin-3(4H)-one], for which the inhibition at 10 µM turned out to be 99%.
Under `COc1cccc(COC2CN(C(=O)c3cc4c(cc3F)OCC(=O)N4)C2)c1` [Example 328, 7-fluoro-6-((3-((3-methoxybenzyl)oxy)azetidin-1-yl)carbonyl)-2H-1,4-benzoxazin-3(4H)-one] stands 101%; under `Cc1cccc(COC2CN(C(=O)c3cc4c(cc3F)OCC(=O)N4)C2)c1` [Example 329, 7-fluoro-6-((3-((3-methylbenzyl)oxy)azetidin-1-yl)carbonyl)-2H-1,4-benzoxazin-3(4H)-one], 100%.
Under `O=C1COc2cc(F)c(C(=O)N3CC(OCc4ccccc4F)C3)cc2N1` [Example 330, 7-fluoro-6-((3-((2-fluorobenzyl)oxy)azetidin-1-yl)carbonyl)-2H-1,4-benzoxazin-3(4H)-one] stands 102%.
Under `O=C1COc2cc(F)c(C(=O)N3CC(OCc4cccc(F)c4)C3)cc2N1` [Example 331, 7-fluoro-6-((3-((3-fluorobenzyl)oxy)azetidin-1-yl)carbonyl)-2H-1,4-benzoxazin-3(4H)-one] stands 100%.
As to `O=C1COc2cc(F)c(C(=O)N3CC(OCc4ccc(F)cc4)C3)cc2N1` [Example 332, 7-fluoro-6-((3-((4-fluorobenzyl)oxy)azetidin-1-yl)carbonyl)-2H-1,4-benzoxazin-3(4H)-one], the inhibition at 10 µM came to 98%.
Under `N#Cc1ccccc1COC1CN(C(=O)c2cc3c(cc2F)OCC(=O)N3)C1` [Example 333, 2-(((1-((7-fluoro-3-oxo-3,4-dihydro-2H-1,4-benzoxazin-6-yl)carbonyl)azetidin-3-yl)oxy)methyl) benzonitrile] stands 101%; under `N#Cc1cccc(COC2CN(C(=O)c3cc4c(cc3F)OCC(=O)N4)C2)c1` [Example 334, 3-(((1-((7-fluoro-3-oxo-3,4-dihydro-2H-1,4-benzoxazin-6-yl)carbonyl)azetidin-3-yl)oxy)methyl) benzonitrile], 98%; under `N#Cc1ccc(COC2CN(C(=O)c3cc4c(cc3F)OCC(=O)N4)C2)cc1` [Example 335, 4-(((1-((7-fluoro-3-oxo-3,4-dihydro-2H-1,4-benzoxazin-6-yl)carbonyl)azetidin-3-yl)oxy)methyl) benzonitrile], 102%.
Consider `O=C1COc2cc(F)c(C(=O)N3CC(OCc4cccc(Cl)c4)C3)cc2N1` [Example 336, 6-((3-((3-chlorobenzyl)oxy)azetidin-1-yl)carbonyl)-7-fluoro-2H-1,4-benzoxazin-3(4H)-one], for which the inhibition at 10 µM is 101%.
For the molecule `CS(=O)(=O)c1ccc(COC2CN(C(=O)c3cc4c(cc3F)OCC(=O)N4)C2)cc1` [Example 337, 7-fluoro-6-((3-((4-(methylsulfonyl)benzyl)oxy)azetidin-1-yl)carbonyl)-2H-1,4-benzoxazin-3(4H)-one], the inhibition at 10 µM came to 92%.
The value for `O=C1COc2cc(F)c(C(=O)N3CC(OCc4ccc(-n5cccn5)cc4)C3)cc2N1` [Example 338, 7-fluoro-6-((3-((4-(1H-pyrazol-1-yl)benzyl)oxy)azetidin-1-yl)carbonyl)-2H-1,4-benzoxazin-3(4H)-one] was 101%.
As for `O=C1COc2cc(F)c(C(=O)N3CC(OCc4cccc(C(F)F)c4)C3)cc2N1` [Example 339], the inhibition at 10 µM turned out to be 103%.
For `O=C1COc2cc(F)c(C(=O)N3CC(OCc4cccc(OC(F)F)c4)C3)cc2N1` [Example 340], the inhibition at 10 µM was determined as 100%.
The value for `O=C1COc2cc(F)c(C(=O)N3CC(OCc4ccccc4OC(F)F)C3)cc2N1` [Example 341] was 101%; that for `O=C1COc2cc(F)c(C(=O)N3CC(OCc4ccccc4Cl)C3)cc2N1` [Example 342, 6-((3-((2-chlorobenzyl)oxy)azetidin-1-yl)carbonyl)-7-fluoro-2H-1,4-benzoxazin-3(4H)-one] was 102%; that for `O=C1COc2cc(F)c(C(=O)N3CC(OCc4ccc(Cl)cc4)C3)cc2N1` [Example 343, 6-((3-((4-chlorobenzyl)oxy)azetidin-1-yl)carbonyl)-7-fluoro-2H-1,4-benzoxazin-3(4H)-one] was 102%.
Under `O=C1COc2cc(F)c(C(=O)N3CC(OCc4ccc5scnc5c4)C3)cc2N1` [Example 344, 6-((3-(1,3-benzothiazol-5-ylmethoxy)azetidin-1-yl)carbonyl)-7-fluoro-2H-1,4-benzoxazin-3(4H)-one] stands 99%; under `O=C1COc2cc(F)c(C(=O)N3CC(OCc4ccc(C(F)(F)F)cc4F)C3)cc2N1` [Example 345, 7-fluoro-6-((3-((2-fluoro-4-(trifluoromethyl)benzyl)oxy)azetidin-1-yl)carbonyl)-2H-1,4-benzoxazin-3(4H)-one], 101%; under `O=C1COc2cc(F)c(C(=O)N3CC(OCc4ccc5c(c4)CCCC5)C3)cc2N1` [Example 346, 7-fluoro-6-((3-(5,6,7,8-tetrahydronaphthalen-2-ylmethoxy)azetidin-1-yl)carbonyl)-2H-1,4-benzoxazin-3(4H)-one], 101%.
Under `COc1ccc(COC2CN(C(=O)c3cc4c(cc3F)OCC(=O)N4)C2)c(Cl)c1` [Example 347, 6-((3-((2-chloro-4-methoxybenzyl)oxy)azetidin-1-yl)carbonyl)-7-fluoro-2H-1,4-benzoxazin-3(4H)-one] stands 102%; under `COc1ccc(COC2CN(C(=O)c3cc4c(cc3F)OCC(=O)N4)C2)cc1F` [Example 348, 7-fluoro-6-((3-((3-fluoro-4-methoxybenzyl)oxy)azetidin-1-yl)carbonyl)-2H-1,4-benzoxazin-3(4H)-one], 100%.
In the case of `O=C1COc2cc(F)c(C(=O)N3CC(OCc4ccc(Cl)cc4F)C3)cc2N1` [Example 349, 6-((3-((4-chloro-2-fluorobenzyl)oxy)azetidin-1-yl)carbonyl)-7-fluoro-2H-1,4-benzoxazin-3(4H)-one], the inhibition at 10 µM was 100%.
As for `Cc1ccc(COC2CN(C(=O)c3cc4c(cc3F)OCC(=O)N4)C2)c(F)c1` [Example 350, 7-fluoro-6-((3-((2-fluoro-4-methylbenzyl)oxy)azetidin-1-yl)carbonyl)-2H-1,4-benzoxazin-3(4H)-one], the inhibition at 10 µM turned out to be 101%.
Under `O=C1COc2cc(F)c(C(=O)N3CC(OCc4ccc(C(F)(F)F)c(F)c4)C3)cc2N1` [Example 351, 7-fluoro-6-((3-((3-fluoro-4-(trifluoromethyl)benzyl)oxy)azetidin-1-yl)carbonyl)-2H-1,4-benzoxazin-3(4H)-one] stands 99%; under `O=C1COc2cc(F)c(C(=O)N3CC(OCc4ccc(C(F)F)cc4F)C3)cc2N1` [Example 352, 6-((3-((4-(difluoromethyl)-2-fluorobenzyl)oxy)azetidin-1-yl)carbonyl)-7-fluoro-2H-1,4-benzoxazin-3(4H)-one], 101%; under `O=C1COc2cc(F)c(C(=O)N3CC(OCc4ccc(N5CC(F)C5)cc4Cl)C3)cc2N1` [Example 353, 6-((3-((2-chloro-4-(3-fluoroazetidin-1-yl)benzyl)oxy)azetidin-1-yl)carbonyl)-7-fluoro-2H-1,4-benzoxazin-3(4H)-one], 100%.
Consider `CC(OC1CN(C(=O)c2cc3c(cc2F)OCC(=O)N3)C1)c1ccc(F)cc1` (stereo not shown) [Example 354, 7-fluoro-6-((3-(1-(4-fluorophenyl)ethoxy)azetidin-1-yl)carbonyl)-2H-1,4-benzoxazin-3(4H)-one], for which the inhibition at 10 µM is 102%.
`O=C1COc2ccc(C(=O)N3CCC(C(F)(F)c4ccc(F)cc4)CC3)cc2N1` [Example 355, 6-((4-(difluoro(4-fluorophenyl)methyl)piperidin-1-yl)carbonyl)-2H-1,4-benzoxazin-3(4H)-one]: the inhibition at 10 µM amounted to 101%.
Under `O=C1COc2cc(F)c(C(=O)N3CC(CC(F)(F)c4ccc(F)cc4Cl)C3)cc2N1` [Example 356, 6-((3-(2-(2-chloro-4-fluorophenyl)-2,2-difluoroethyl)azetidin-1-yl)carbonyl)-7-fluoro-2H-1,4-benzoxazin-3(4H)-one] stands 102%.
